Data on one compound can be found in patent US7001770B1, “Calpain inhibitors and their applications” (priority 1998, dated 2006).

Square brackets hold non-standard residues; d marks the D form. Peptide text beside a SMILES is read from it. Nle = CCCC[C@H](N)C(=O)O

Holding throughout (format): cell-based
In assay [1] the test system is p53 and p21 protein levels in RKO cells. Put plainly: Western blot of p53 and p21 levels. The note with it: 17 hours. The method, then: (§1) FIG. 5 contains the results of Western blots measuring the levels of p53 and p21 in rAd-p53 infected cells in the presence of varying concentrations of CI-1. Above each lane is a “+” of “−” which indicates if the cells were pulsed with 1×10^9 rAd-p53 for one hour (+) or not (−). The row of numbers below indicates the μM concentration of CI-1 to which the cells were exposed at 17 hours post-infection. The upper row of chemiluminescent signals provides the levels of p53 while the lower row of chemiluminescent signals provides the levels of p21. […] When 5 μM CI-1 was added with rAd-p53, the levels of p53 increased two fold, as quantitated on NIH imaging.
(§2) At 17 hours post treatment, cells were lysed in protein lysis buffer (50 mM tris, 250 mM NaCl, 50 mM NaF, 5 mM EDTA and 0.1% NP-40 with 1 mM PMSF). Cell lysates were subjected to electrophoresis. 10 μg of protein was added per lane on a 12% polyacrylamide gel and transfered onto nitrocellulose membranes. The membranes were subjected to western blot analysis using antibodies specific for p53 or p21 (Calbiochem, p53 antibody Ab-6, and p21 antibody Ab-7). HRP-conjugated secondary antibody (Amersham) was added for one hour at which time the blots were washed. Blots were developed using enhanced chemiluminescence detection system (Amersham) and quantitated using NIH imaging analysis.

Assay [2] concerns p53 and p21 protein levels in HLF cells. The assay is described as follows: Western blot of p53 and p21 levels. The note with it: 17 hours. As to the method:
as §1, §2

The test system of another assay is AP-1. Put plainly: Gel shift assay. To be noted: HLF cells; 10 μM CI-1; 24 hours post treatment. As to the method:
(§3) The lanes on the gel are labelled as follows: Lane 1=DMF solvent alone control; Lane 2=10 μM CI-1; Lane 3=a null control vector based on ACN53 without the p53 transgene (ZZCB); Lane 4=ZZCB+10 μM CI-1; Lane 5=ACN53 alone and Lane 6=ACN53+ 10 μM CI-1. Panel A illustrates the induction of NF-kb upon administration of calpain inhibitor 1. Panel B illustrates the induction of AP-1 upon administration of calpain inhibitor 1.
(§4) In contrast to these studies, the present invention further provides a method of enhancing transcription of a therapeutic transgene from the CMV promoter. The term “enhancing transcription” refers to an increase in the transcriptional activity of those sequences operably linked to the CMV promter. The term CMV promoter means the immediate early promoter of the cytomegalovirus. The promoter may be isolated as a restriction endonuclease fragment from the commercially available vector pCMVβ (GenBank Accession Number U02451). […] The CMV promoter is a strong constituitive promoter widely utilized in the expression of exogenous transgenes from viral vectors. Recent reports indicated an upregulation of the CMV promoter driven genes in response to recombinant adenoviral infection. […] In response to calpain inhibitor 1 treatment, a 42% increase in NF-kB activation was detected, and a 50% increase in AP1 activation was detected as quantified by densitometer readings. […]

In a further assay the test system is NF-kB. Put plainly: Gel shift assay. The note with it: HLF cells; 10 μM CI-1; 24 hours post treatment. As to the method: as §3, §4
In general terms: A gel shift assay detects complexes by their altered migration in electrophoresis.

For the compound `CCCC[C@@H](C=O)NC(=O)[C@H](CC(C)C)NC(=O)[C@H](CC(C)C)NC(C)=O` [CI-1, N-acetyl-leu-leu-norleucinal] (Ac-Leu-Leu-[Nle]-aldehyde), the “increase in p53 and p21 levels” value in assay [1] (5 μM CI-1 with 1×10^9 rAd-p53) is given as “two fold increase”. For the same compound, in assay [1] (10 μM CI-1 with 1×10^9 rAd-p53), the “increase in p53 levels over rAd-p53 alone” value is “about a five fold increase”. The “increase in levels of p53 (NIH imaging)” value in assay [2] (5 μM CI-1 added with 1×10^9 rAd-p53, versus rAd-p53 alone) is on record as “two fold”. In assay [2] (10 μM CI-1 added with 1×10^9 rAd-p53), the “increase in levels of p53 and p21” value is “approximately three fold”. Besides, the “increase in AP1 activation (densitometer)” value in the assay with AP-1 was found to be 50%. The “increase in NF-kB activation (densitometer)” value in the assay with NF-kB turned out to be 42%.
